Test results: patent US10463753B2, “Radiolabeled monoacylglycerol lipase occupancy probe” (LUNDBECK LA JOLLA RESEARCH CENTER, INC., priority 2016, dated 2019)

Columns and labels:
[1] = Phase 0 study: parent fraction in blood/plasma by HPLC; assay type: in vivo; details: human blood
Experimental: (§1) An additional cohort of four healthy volunteers (two male, two female) was recruited for a whole body biodistribution cohort in which they underwent a single Compound 8F PET scan.
(§2) Blood samples were analyzed by HPLC to determine the fraction of intact parent compound at each time point. […] Free fraction of parent compound in plasma (not protein bound) was also measured by ultrafiltration and estimated to be 0.36±0.04% (n=10).

[2] = Phase 0 whole-body biodistribution and radiation dosimetry by PET; assay type: in vivo, human
Experimental: as §1
Elimination via the urinary route was very low.
The following organs were identified as source organs: brain, heart, liver, gallbladder, intestines, kidneys, and urinary bladder. […] The average whole body effective dose (ED) was determined to be 2.19E-02±2.83E-04 mSv/MBq (8.10E-02±1.05E-03 rem/mCi) for adult female and 1.85E-02±7.07E-04 mSv/MBq (6.85E-02±2.62E-03 rem/mCi) for adult male, where the critical organ was determined to be the liver. Stated differently, average whole body ED for females=21.9 μSv/MBq, and for males=18.5 μSv/MBq (average for male and female=20.2 μSv/MBq).

[3] = Whole-body biodistribution and radiation dosimetry by PET imaging; assay type: in vivo, rhesus monkey
Experimental: The average PET image over the total acquisition duration (˜240 min) of a female rhesus is shown in FIG. 6 (abbreviations: CT=computerized tomography; gb=gallbladder; HU=Hounsfield units; PET=positron emission tomography; SUV=standardized uptake value; ub=urinary bladder; VOI=volume of interest) at three different levels through the body. […] The volumes of interest (VOIs) drawn over the organs identified as sources for the radiation dosimetry calculation can be seen on both average PET and its associated computed tomography (CT) image. […] Selected organs are labeled in the figure. The non-decay corrected (used for the dosimetry calculation) and decay corrected time activity curves of the 11 source organs are shown in FIG. 8 for both the female and male rhesus monkey. The curve values are expressed as percent of injected activity. The total absorbed doses in various target organs generated by OLINDA|EXM 1.1 software are presented in Table 4 for both adult male and adult female models in units of millisievert per megabecquerel (mSv/MBq) and roentgen equivalent man per millicurie (rem/mCi). Kidneys received the highest radiation dose in both the male and female rhesus. The effective dose equivalent (with ICRP-26 tissue weighting factors) and effective dose (with ICRP-60 tissue weighting factors) calculated for the whole body are also listed in Table 4.

[4] = arterial plasma
[5] = Free fraction of parent compound in plasma by ultrafiltration; assay type: in vitro ADME; details: human plasma, n=10; read-out: Free fraction of parent compound in plasma (not protein bound)
Experimental: as §2

[6] = In vitro plasma protein binding by ultrafiltration; assay type: in vitro ADME; details: rhesus monkey, read-out: Plasma free fraction (not protein bound)
[7] = whole-body biodistribution cohort

## O=C(OC(C(F)(F)F)C(F)(F)F)N1CCN(Cc2ccc(Cl)cc2N2CCN(CC[18F])CC2)CC1 [Compound 8F, [^18F]1,1,1,3,3,3-hexafluoropropan-2-yl 4-(4-chloro-2-(4-(2-fluoroethyl)piperazin-1-yl)benzyl)piperazine-1-carboxylate]
[1]
  Stability in blood ex vivo: stable
[2]; average for male and female
  Average whole body ED: 20.2 μSv/MBq
[2]; females
  Average whole body ED: 21.9 μSv/MBq
[2]; males
  Average whole body ED: 18.5 μSv/MBq
[2]; [7]
  Elimination via the urinary route: very low
  Maximum injected dose (ID) in the intestine: 6-7 % ID
  Maximum injected dose (ID) in the liver: 26-28 % injected dose (ID)
  Organ with highest radiation absorbed dose (critical organ): liver
  Route of elimination of the radiotracer: primarily via hepatobiliary route
[3]; both male and female rhesus
  Organ receiving the highest radiation dose: Kidneys
[3]; i.v. bolus, whole-body PET
  Organs with the highest uptake: liver, heart wall, lungs, kidney and brain
[4]; by ~10 min post-dose
  Plasma level: ≤ 0.01 % of the injected dose
[4]; single i.v. 2.25-4.99 mCi
  Peak plasma concentration: ~0.04 % of the injected dose
[4]; single i.v. dose
  Time of peak plasma concentration post-dose: ~5 min
[5]
  fraction unbound: 0.0036 ± 0.0004
[6]; first study
  fraction unbound: 0.047 ± 0.006
[6]; second study
  fraction unbound: 0.008 ± 0.0004
